The results in this text go back to ChEMBL document CHEMBL1201862, “PubChem BioAssay data set” (2004).

Among the test systems are SW-620; SF-268; MDA-MB-435; TK-10; U-251; HL-60; SK-MEL-28; CAKI-1; 786-0; SF-295; NCI-H226; OVCAR-8; CCRF-CEM; NCI-H23; SR; HCC 2998; COLO 205; LOX IMVI; SN12C; OVCAR-5.
What all share (experiment): NCI anticancer screen, dose series, 48 h

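Grown in 96-well plates, cells were treated for 48 hours with each compound at five concentrations. Insufficient inhibition: endpoint recorded as highest concentration tested. Abbreviation: GI50, concentration required for 50% inhibition of growth.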 Active and inactive are the calls of the source. No stated cut-off is given here; in the data, active = GI50 up to about 1.1 µM and inactive = higher.

Regarding `Oc1ccc(Cl)cc1Cc1cc(Cl)cc(Cc2cc(Cl)ccc2O)c1O`, the GI50 in the test on SW-620 was 3.29 µM (inactive); with SF-268, 2.69 µM (inactive); with MDA-MB-435 it was 2.82 µM (inactive); in the test with TK-10, 2.72 µM (inactive); in the test on U-251, 2.7 µM (inactive); in the test with HL-60, 2.3 µM (inactive). Besides, the GI50 in the test on SK-MEL-28 was 3.24 µM (inactive); in the test on CAKI-1, 2.48 µM (inactive); in the test on 786-0, 2.81 µM (inactive); in the test with SF-295, 2.29 µM (inactive); in the test on NCI-H226, 2.74 µM (inactive); in the test on OVCAR-8, 3.43 µM (inactive). Also, the GI50 in the test on CCRF-CEM was 1.47 µM (inactive); in the test on NCI-H23, 2.01 µM (inactive); in the test on SR it was 2.82 µM (inactive); in the test with HCC 2998, 0.836 µM (active); in the test on COLO 205, 1.76 µM (inactive); in the test with LOX IMVI it was 2.9 µM (inactive). For the same molecule, the GI50 in the test on SN12C was 2.4 µM (inactive); in the test on OVCAR-5, 3.17 µM (inactive).

Take `COC(=O)N1CC[C@@H]2CCC=C(c3cccc4c3OCO4)[C@@H]21`: the GI50 in the test on SW-620 was > 100 µM (inactive); in the test on SF-268 it was > 100 µM (inactive); with MDA-MB-435, > 100 µM (inactive); in the test with TK-10 it was 82.8 µM (inactive); in the test with U-251, > 100 µM (inactive); with HL-60 it was 30.9 µM (inactive). The GI50 in the test on SK-MEL-28, in the test with CAKI-1, in the test with 786-0, in the test on SF-295, with NCI-H226 and with OVCAR-8 was > 100 µM (inactive) throughout. Besides, the GI50 with CCRF-CEM is 49.3 µM (inactive); in the test on NCI-H23, > 100 µM (inactive); with SR, > 100 µM (inactive); with HCC 2998, > 100 µM (inactive); in the test with COLO 205 it was > 100 µM (inactive); in the test on LOX IMVI, > 100 µM (inactive). Further, the GI50 in the test with SN12C and in the test with OVCAR-5 was > 100 µM (inactive) throughout.

For the molecule `O=C(Nc1ccccc1)c1cc(S(=O)(=O)n2ccnc2O)c(S)cc1Cl`, the GI50 in the test on SW-620, in the test on SF-268, in the test with MDA-MB-435, with TK-10, in the test on U-251 and in the test on HL-60 was > 100 µM (inactive) throughout. The GI50 with SK-MEL-28, in the test on CAKI-1, in the test with 786-0, in the test with SF-295, in the test with NCI-H226 and in the test on OVCAR-8 was > 100 µM (inactive) each time. The GI50 with CCRF-CEM, in the test with NCI-H23, in the test with SR, with HCC 2998, in the test on COLO 205 and with LOX IMVI was > 100 µM (inactive) in each case. Further, the GI50 in the test on SN12C and with OVCAR-5 was > 100 µM (inactive) throughout.

For `COc1ccc(OC)c(NC2=NCCO2)c1`, the GI50 in the test on SW-620 was 13.6 µM (inactive); with SF-268 it was > 100 µM (inactive); with MDA-MB-435, 89.7 µM (inactive); in the test with TK-10, > 100 µM (inactive); in the test on U-251, > 100 µM (inactive); in the test with HL-60, 83.8 µM (inactive). Besides, the GI50 was > 100 µM (inactive) in the test on SK-MEL-28; 15 µM (inactive) in the test on CAKI-1; > 100 µM (inactive) in the test on 786-0; > 100 µM (inactive) in the test with SF-295; > 100 µM (inactive) in the test with NCI-H226; > 100 µM (inactive) in the test on OVCAR-8. Besides, the GI50 with CCRF-CEM was > 100 µM (inactive); in the test with NCI-H23, 52.4 µM (inactive); with SR, 66.4 µM (inactive); in the test on HCC 2998 it was > 100 µM (inactive); with COLO 205, > 100 µM (inactive); with LOX IMVI, > 100 µM (inactive). In addition, the GI50 in the test with SN12C and with OVCAR-5 was > 100 µM (inactive) in each case.
